Reference: patent publication US20060069132A1, “Azolecarboxamide herbicides” (priority 2004, published 2006)

Assays:
barnyardgrass [1] = assay: Test A pre-/postemergence herbicide test; format: in vivo, Echinochloa crus-galli
How it was run: (§1)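 Visual injury rating on a 0–100 scale (0 no effect, 100 complete control) versus untreated controls, about ten days after treatment in greenhouse. Pre: directed soil spray onto seeded sandy loam. Post: spray to runoff on plants 2–10 cm tall at one- to two-leaf stage.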

large crabgrass [2] = assay: Test A pre-/postemergence herbicide test; format: in vivo, Digitaria sanguinalis
How it was run: as §1

giant foxtail [3] = assay: Test A pre-/postemergence herbicide test; format: in vivo, Setaria faberi
How it was run: as §1

morningglory [4] = assay: Test A pre-/postemergence herbicide test; format: in vivo, Ipomoea spp.
How it was run: as §1

redroot pigweed = assay: Test A pre-/postemergence herbicide test; format: in vivo, Amaranthus retroflexus
How it was run: as §1

velvetleaf [5] = assay: Test A pre-/postemergence herbicide test; format: in vivo, Abutilon theophrasti
How it was run: as §1

barnyardgrass [6] = assay: Test B pre-/postemergence herbicide test; format: in vivo, Echinochloa crus-galli
How it was run: (§2)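 Herbicidal effect was judged by eye on a 0–100 scale after plants stood 13 to 15 days in the greenhouse following pre- or postemergence treatment with surfactant-containing formulations.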

Surinam grass = assay: Test B pre-/postemergence herbicide test; format: in vivo, Urochloa decumbens
How it was run: (§3)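 Greenhouse pot assay with simultaneous preemergence (treated seed) and postemergence (2–18 cm seedlings) applications of surfactant-containing, non-phytotoxic solvent formulations. Response scored visually 13–15 days later on a 0–100 scale, 100 meaning complete control.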

cocklebur = assay: Test B pre-/postemergence herbicide test; format: in vivo, Xanthium strumarium
How it was run: as §2

corn = assay: Test B pre-/postemergence herbicide test; format: in vivo, Zea mays
How it was run: as §3

large crabgrass [7] = assay: Test B pre-/postemergence herbicide test; format: in vivo, Digitaria sanguinalis
How it was run: as §3

giant foxtail [8] = assay: Test B pre-/postemergence herbicide test; format: in vivo, Setaria faberi
How it was run: as §3

lambsquarters = assay: Test B pre-/postemergence herbicide test; format: in vivo, Chenopodium album
How it was run: as §3

morningglory [9] = assay: Test B pre-/postemergence herbicide test; format: in vivo, Ipomoea coccinea
How it was run: as §2

pigweed = assay: Test B pre-/postemergence herbicide test; format: in vivo, Amaranthus retroflexus
How it was run: as §3

rice [10] = assay: Test B pre-/postemergence herbicide test; format: in vivo, Oryza sativa; settings: preemergence
How it was run: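 Species tested were Echinochloa crus-galli, Ipomoea coccinea, Xanthium strumarium and Oryza sativa, treated both before emergence and at the 1- to 4-leaf stage; rice and barnyardgrass were also tested under flooding at 2 leaves. Greenhouse incubation lasted 13–15 days before visual 0–100 scoring.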

velvetleaf [11] = assay: Test B pre-/postemergence herbicide test; format: in vivo, Abutilon theophrasti
How it was run: as §3

blackgrass = assay: Test B postemergence herbicide test; format: in vivo, Alopecurus myosuroides; settings: scale 0 (no effect) to 100 (complete control)
How it was run: (§4)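 Treated at 2-leaf (paddy) or 1–4-leaf, 2–18 cm (postemergence); greenhouse 13–15 d; visual score vs control, 0 none to 100 complete control; dash = not tested.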

wheat = assay: Test B postemergence herbicide test; format: in vivo, Triticum aestivum; parameters: key to Wheat plant response rating: 0 = no effect, 100 = complete control; settings: scale 0 (no effect) to 100 (complete control)
How it was run: as §4

wild oat = assay: Test B postemergence herbicide test; format: in vivo, Avena fatua; settings: scale 0 (no effect) to 100 (complete control)
How it was run: as §4

rice [12] = assay: Test B flooded paddy test; format: in vivo, Oryza sativa; settings: 1000 g ai/ha, visual rating, scale 0 to 100 (0 no effect, 100 complete control), 13 to 15 days
How it was run: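 Greenhouse test; postemergence application to plants at 1–4 leaves (2–18 cm); paddy species at 2 leaves; evaluated visually vs controls at 13–15 days; scale 0–100 (100 = complete control).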

[13] = system: small flower umbrella sedge; assay: Test B flooded paddy test; format: in vivo, Cyperus difformis; settings: 1000 g ai/ha, visual rating, scale 0 to 100 (0 no effect, 100 complete control), 13 to 15 days
How it was run: as §4

ducksalad = assay: Test B flooded paddy test; format: in vivo, Heteranthera limosa; settings: 1000 g ai/ha, visual rating, scale 0 to 100 (0 no effect, 100 complete control), 13 to 15 days
How it was run: as §4

barnyardgrass [14] = assay: Test B flooded paddy test; format: in vivo, Echinochloa crus-galli; settings: 1000 g ai/ha, visual rating, scale 0 to 100 (0 no effect, 100 complete control), 13 to 15 days
How it was run: as §4

[15] = Postemergence, 500 g ai/ha, 0 to 100 scale, 0 no effect, 100 complete control
[16] = Postemergence, 2000 g ai/ha, 0 to 100 scale, 0 no effect, 100 complete control
[17] = Preemergence, 500 g ai/ha, visual rating, 0 to 100 scale (0 no effect, 100 complete control)
[18] = Preemergence, 2000 g ai/ha, 0 to 100 scale, 0 no effect, 100 complete control
[19] = 500 g ai/ha, visual rating 0-100, 0 no effect, 100 complete control, preemergence
[20] = Postemergence, 500 g ai/ha, visual rating after 13 to 15 days, scale 0 (no effect) to 100 (complete control)
[21] = postemergence, 125 g ai/ha, visual rating, scale 0 (no effect) to 100 (complete control)
[22] = preemergence, 125 g ai/ha, 0 to 100 scale, 0 is no effect, 100 is complete control
[23] = Postemergence, 500 g ai/ha, visual rating after 13 to 15 days
[24] = postemergence, 125 g ai/ha, visual rating

C=CCOC(=O)c1cccc(NC(=O)c2cc(C(C)(C)C)nn2CC)c1C [Compound 94]
80: Plant response rating, Lambsquarters (lambsquarters; [20])
0: Plant response rating, Surinam Grass (Surinam grass; [19]) | Plant response rating, Surinam Grass (Surinam grass; [22]) | Plant response rating, Cocklebur (cocklebur; [19]) | Plant response rating, Cocklebur (cocklebur; [22]) | Plant response rating, Corn (corn; [19]) | Plant response rating, Corn (corn; [22]) | Plant response rating, Lambsquarters (lambsquarters; [19]) | Plant response rating, Lambsquarters (lambsquarters; [22]) | Plant response rating, Morningglory (morningglory [9]; [19]) | Plant response rating, Morningglory (morningglory [9]; [22]) | Plant response rating, Pigweed (pigweed; [22]) | Plant response rating, Rice (rice [10]; 500 g ai/ha, visual rating 0-100, 0 no effect, 100 complete control) | Plant response rating, Rice (rice [10]; 125 g ai/ha, 0 to 100 scale, 0 is no effect, 100 is complete control) | Plant response rating, Velvetleaf (velvetleaf [11]; [19]) | Plant response rating, Velvetleaf (velvetleaf [11]; [22]) | Blackgrass plant response rating (blackgrass; [24]) | Wheat plant response rating (wheat; [24])
30: Plant response rating, Crabgrass, Large (large crabgrass [2]; [16]) | Plant response rating, Pigweed (redroot pigweed; [16]) | Plant response rating, Foxtail, Giant (giant foxtail [8]; [19]) | Plant response rating, Pigweed (pigweed; [20]) | Ducksalad plant response rating (ducksalad)
35: Plant response rating, Barnyardgrass (barnyardgrass [1]; [16]) | Crabgrass, Large plant response rating (large crabgrass [2]; [17]) | Pigweed plant response rating (redroot pigweed; [17])
10: Crabgrass, Large plant response rating (large crabgrass [2]; [15]) | Foxtail, Giant plant response rating (giant foxtail [3]; [15]) | Morningglory plant response rating (morningglory [4]; [17]) | Morningglory plant response rating (morningglory [4]; [18]) | Plant response rating, Barnyardgrass (barnyardgrass [6]; [20]) | Barnyardgrass plant response rating (barnyardgrass [6]; [21]) | Plant response rating, Barnyardgrass (barnyardgrass [6]; [22]) | Plant response rating, Surinam Grass (Surinam grass; [20]) | Surinam Grass plant response rating (Surinam grass; [21]) | Plant response rating, Crabgrass, Large (large crabgrass [7]; [20]) | Crabgrass, Large plant response rating (large crabgrass [7]; [21]) | Plant response rating, Crabgrass, Large (large crabgrass [7]; [22]) | Plant response rating, Foxtail, Giant (giant foxtail [8]; [20]) | Foxtail, Giant plant response rating (giant foxtail [8]; [21]) | Plant response rating, Foxtail, Giant (giant foxtail [8]; [22]) | Plant response rating, Morningglory (morningglory [9]; [20]) | Morningglory plant response rating (morningglory [9]; [21]) | Pigweed plant response rating (pigweed; [21]) | Velvetleaf plant response rating (velvetleaf [11]; [21]) | Plant response rating, Blackgrass (blackgrass; [23]) | Plant response rating, Wheat (wheat; [23]) | Plant response rating, Oat, Wild (wild oat; [23]) | Oat, Wild plant response rating (wild oat; [24]) | Rice plant response rating (rice [12])
15: Plant response rating, Foxtail, Giant (giant foxtail [3]; [16])
45: Foxtail, Giant plant response rating (giant foxtail [3]; [17])
25: Pigweed plant response rating (redroot pigweed; [15]) | Plant response rating, Velvetleaf (velvetleaf [5]; [16]) | Velvetleaf plant response rating (velvetleaf [5]; Preemergence, 2000 g ai/ha, visual rating, 0 to 100 scale (0 no effect, 100 complete control))
50: Plant response rating, Cocklebur (cocklebur; [20]) | Lambsquarters plant response rating (lambsquarters; [21]) | Sedge, Umbrella plant response rating [13]
20: Barnyardgrass plant response rating (barnyardgrass [1]; [15]) | Barnyardgrass plant response rating (barnyardgrass [1]; [17]) | Morningglory plant response rating (morningglory [4]; [15]) | Plant response rating, Morningglory (morningglory [4]; [16]) | Velvetleaf plant response rating (velvetleaf [5]; [15]) | Plant response rating, Barnyardgrass (barnyardgrass [6]; [19]) | Cocklebur plant response rating (cocklebur; [21]) | Plant response rating, Corn (corn; [20]) | Corn plant response rating (corn; [21]) | Plant response rating, Crabgrass, Large (large crabgrass [7]; [19]) | Plant response rating, Pigweed (pigweed; [19]) | Plant response rating, Velvetleaf (velvetleaf [11]; [20]) | Barnyardgrass plant response rating (barnyardgrass [14])
5: Velvetleaf plant response rating (velvetleaf [5]; [17])
85: Pigweed plant response rating (redroot pigweed; [18])
65: Barnyardgrass plant response rating (barnyardgrass [1]; [18]) | Foxtail, Giant plant response rating (giant foxtail [3]; [18])
60: Crabgrass, Large plant response rating (large crabgrass [2]; [18])
